Results on 16 compounds are retold here after patent publication US8076332B2, “N- (2-aminophenyl) benzamide derivative having urea structure” (Santen Pharmaceutical Co., Ltd., priority 2006, dated 2011).

For one assay, the system named is human trabecular meshwork cell line (TM-1 cells). Put plainly: Test for evaluation of effect of morphological change on trabecular meshwork cells (cell shape index, CSI). The format is cell-based. To be noted: final concentration 10 μM, incubation 24 hours, CSI=4π×(Cell Area)/(Cell Perimeter)^2, average per group, Control 0.730. The procedure: 1. Test for Evaluation of Effect of Morphological Change on Trabecular Meshwork Cells
As a method for evaluating a cellular morphological change, an evaluation system using the cell shape index (hereinafter referred to as “CSI”) as an index has been reported in The Journal of Clinical Investigation, 103, 1141-1150 (1999). Therefore, according to the method described in the above document, an effect of morphological change of the present compounds on trabecular meshwork cells was evaluated.
A human trabecular meshwork cell line (hereinafter referred to as “TM-1 cells”) reported in Investigative Opthalmology & Visual Science, 43, 151-161 (2002) was used.
Culture medium 1: A reagent was prepared by adding fetal bovine serum (10%), L-glutamine (2 mM), amphotericin B (2.5 μg/mL), and gentamicin (25 μg/mL) to Dulbecco's modified Eagle medium (hereinafter referred to as “D-MEM”).
Culture medium 2: Fetal bovine serum (3%), L-glutamine (2 mM), amphotericin B (2.5 μg/mL), and gentamicin (25 μg/mL) were added to D-MEM.
Cell staining liquid: A mixed liquid of Calcein-AM (16 μM) and Hoechst 33342 (40 μM) was prepared by diluting a Calcein-AM solution (cytoplasmic staining reagent, manufactured by Dojindo Laboratories) and a Hoechst 33342 solution (nuclear staining reagent, manufactured by Dojindo Laboratories) with D-MEM containing L-glutamine (2 mM), amphotericin B (2.5 μg/mL), and gentamicin (25 μg/mL).
TM-1 cells subcultured at 37° C. in a 8% carbon dioxide gas atmosphere were treated with a trypsin/EDTA solution (0.05% trypsin and 0.53 mM tetrasodium ethylenediaminetetraacetate) at 24 hours before performing a drug treatment mentioned below and seeded on a 96-well culture plate. The culture medium 1 was used for the subculture of the cells. The culture medium 2 was used for the cell culture after seeding the cells on the plate.
A test compound was dissolved in dimethyl sulfoxide, whereby a 5 mM solution was prepared. Then, the resulting solution was diluted with the culture medium 2, whereby a 200 μM test compound solution was prepared.
It has been reported that Y-27632 which is a Rho kinase inhibitor induces a morphological change in trabecular meshwork cells in Investigative Ophthalmology & Visual Science, 42, 137-144 (2001). Therefore, Y-27632 (produced according to the method described in WO 90/05723) was used as a positive control, and dissolved in dimethyl sulfoxide in the same manner as the test compound, whereby a 5 mM solution was prepared, and then, the resulting solution was diluted with the culture medium 2, whereby a 200 μM positive control compound solution was prepared.
1) To a 96-well culture plate, a solution of TM-1 cells adjusted to a cell density of […] was added in an amount of 95 μL (1.5×10^4 cells) per well.
2) Incubation was performed at 37° C. in a 8% carbon dioxide gas atmosphere for 24 hours.
3) The test compound solution or positive control compound solution was added in an amount of 5 μL per well (the final concentration of the test compound or positive control compound was 10 μM). As a control, the culture medium 2 containing dimethyl sulfoxide (4%) was added in an amount of 5 μL per well.
4) Incubation was performed at 37° C. in a 8% carbon dioxide gas atmosphere for 24 hours.
5) The cell staining liquid was added in an amount of 10 μL per well.
6) Incubation was performed at 37° C. in a 8% carbon dioxide gas atmosphere for 1 hour to stain the cells.
7) A 37% formaldehyde solution was added in an amount of 10 μL per well.
8) Incubation was performed at room temperature for 1 hour to fix the cells.
9) Washing with phosphate-buffered saline was performed.
10) Using Array Scan Vti HCS reader (manufactured by Cellomics), images of stained cells magnified with a 20 times objective lens were captured in 80 fields (10 fields×8 wells) per test compound addition group.
11) CSI was calculated for each cell and an average value was obtained for each test compound addition group. […]
`Nc1ccccc1NC(=O)c1ccc(CN(CCCN2CCOCC2)C(=O)NCCc2ccc3c(c2)OCO3)cc1` [Compound 1-59, N-(2-Aminophenyl)-4-[3-[2-(benzo[1,3]dioxol-5-yl)ethyl]-1-[3-(morpholin-4-yl)propyl]ureidomethyl]benz-amide] came in with a CSI of 0.571.

As to `CN(C)CCN(Cc1ccc(C(=O)Nc2ccccc2N)cc1)C(=O)Nc1ccc2c(c1)OCCO2` [Compound 1-80, N-(2-Aminophenyl)-4-[3-(2,3-dihydrobenzo[1,4]dioxin-6-yl)-1-(2-dimethylamino-ethyl)ureidomethyl]benzamide], the CSI turned out to be 0.543.

As for `CN(C)CCCN(Cc1ccc(C(=O)Nc2ccccc2N)cc1)C(=O)Nc1cccnc1` [Compound 1-104, N-(2-Aminophenyl)-4-[1-(3-dimethylaminopropyl)-3-(pyridin-3-yl)ureidomethyl]-benzamide], the CSI worked out at 0.609.

Compound `COc1ccc(N)c(NC(=O)c2ccc(CN(CCN(C)C)C(=O)Nc3ccc4c(c3)CCC4)cc2)c1` [Compound 1-107, N-(2-Amino-5-methoxyphenyl)-4-[1-(2-dimethylamino-ethyl)-3-(indan-5-yl)ureod-methyl]benzamide] had a CSI of 0.663.

On to `CN1CCN(CCN(Cc2ccc(C(=O)Nc3ccccc3N)cc2)C(=O)Nc2ccc(F)c(F)c2)CC1` [Compound 1-113, N-(2-Aminophenyl)-4-[3-(3,4-difluorophenyl)-1-[2-(4-methylpiperazin-1-yl)ethyl]-ureidomethyl]benzamide], for which the CSI is recorded as 0.585.

`CC1CCN(CCCN(Cc2ccc(C(=O)Nc3ccccc3N)cc2)C(=O)Nc2ccc3c(c2)OCCO3)CC1` [Compound 1-128, N-(2-Aminophenyl)-4-[3-(2,3-dihydrobenzo[1,4]dioxin-6-yl)-1-[3-(4-methylpiper-idin-1-yl)propyl]ureido-methyl]benzamide] had a CSI of 0.554.

In the case of `Nc1ccccc1NC(=O)c1ccc(CN(CCCN2CCOCC2)C(=O)Nc2ccsc2)cc1` [Compound 1-134, N-(2-Aminophenyl)-4-[1-(3-(morpholin-4-yl)propyl]-3-(thiophen-3-yl)ureido-methyl]benzamide], the CSI is 0.580.

On to `Cc1cc(NC(=O)N(CCCN2CCOCC2)Cc2ccc(C(=O)Nc3ccccc3N)cc2)ccc1F` [Compound 1-135], for which the CSI is given as 0.555.

As to `Nc1ccccc1NC(=O)c1ccc(CN(CCCN2CCOCC2)C(=O)Nc2ncc([N+](=O)[O-])s2)cc1` [Compound 1-165, N-(2-Aminophenyl)-4-[1-(3-(morpholin-4-yl)propyl]-3-(5-nitrothiazol-2-yl)ureido-methyl]benzamide], the CSI is reported as 0.578.

The compound `Nc1ccccc1NC(=O)c1ccc(CN(CCCN2CCCC2)C(=O)Nc2ccc3c(c2)OCCO3)cc1` [Compound 1-169, N-(2-Aminophenyl)-4-[3-(2,3-dihydrobenzo[1,4]dioxin-6-yl)-1-[3-(pyrrolidin-1-yl)propyl]ureidomethyl]benz-amide] displayed a CSI of 0.566.

As for `CN(C)CCCN(Cc1ccc(C(=O)Nc2ccccc2N)cc1)C(=O)Nc1ccc(F)c(F)c1` [Compound 2-2, N-(2-Aminophenyl)-4-[3-(3,4-difluorophenyl)-1-(3-dimethylaminopropyl)ureidomethyl]benzamide], the CSI is given as 0.585.

Take `COc1ccccc1NC(=O)N(CCCN(C)C)Cc1ccc(C(=O)Nc2ccccc2N)cc1` [Compound 2-3, N-(2-Aminophenyl)-4-[1-(3-dimethylaminopropyl)-3-(2-methoxyphenyl)ureidomethyl]benzamide]: the CSI is recorded as 0.618.

With `CCOC(=O)CNC(=O)N(CCCN(C)C)Cc1ccc(C(=O)Nc2ccccc2N)cc1` [Compound 2-4], the CSI was 0.664.

Take `CN(C)CCCN(Cc1ccc(C(=O)Nc2ccccc2N)cc1)C(=O)NC(C)(C)C` [Compound 2-5, N-(2-Aminophenyl)-4-[3-t-butyl-1-(3-dimethylaminopropyl)ureidomethyl]benzamide]: the CSI was 0.570.

For `CN(C)CCCN(Cc1ccc(C(=O)Nc2ccccc2N)cc1)C(=O)Nc1cccc(O)c1` [Compound 3-1, N-(2-Aminophenyl)-4-[1-(3-dimethylaminopropyl)-3-(3-hydroxyphenyl)ureidomethyl]benzamide], the CSI was 0.616.

In the case of `C[C@@H](N)[C@H]1CC[C@H](C(=O)Nc2ccncc2)CC1` [Compound Y-27632, reference compound], the CSI worked out at 0.600.

The test system of another assay is male Japanese White rabbits. Put plainly: Test for evaluation of intraocular pressure-lowering effect (intracameral administration). The format is in vivo. The settings on record: 20 μL of 1 mM administration liquid to one eye, at 9 hours after administering, versus vehicle control group, 6 cases per group. Here is the method: 2. Test for Evaluation of Intraocular Pressure-Lowering Effect
In order to evaluate an intraocular pressure-lowering effect of the present compounds, a test for evaluation of intraocular pressure-lowering effect of intracameral administration of a drug using male Japanese White rabbits was performed.
A test compound was dissolved or suspended in physiological saline containing 0.5% dimethyl sulfoxide, whereby a 1 mM test compound administration liquid was prepared.
One drop of 0.4% oxybuprocaine hydrochloride eye drop was instilled into both eyes of each male Japanese White rabbit to achieve local anesthesia, and thereafter, the intraocular pressure was measured using an applanation tonometer. Then, by using a syringe fitted with a 30-gauge needle, the test compound administration liquid (20 μL) was intracamerally administered to one eye. As a control, 20 μL of the vehicle (physiological saline containing 0.5% dimethyl sulfoxide) for the test compound was intracamerally administered. After the lapse of a certain period of time from the administration of the test compound or vehicle, one drop of 0.4% oxybuprocaine hydrochloride eye drop was instilled into the administered eye to achieve local anesthesia, and thereafter, the intraocular pressure was measured using an applanation tonometer.
The intraocular pressure-lowering effect of each test compound was evaluated by calculating an intraocular pressure reduction rate. The intraocular pressure reduction rate (%) was calculated using the following equation. (Intraocular Pressure Reduction rate(%))=100×(Average Value of Intraocular Pressure of Control Group)−(Average Value of Intraocular Pressure of Each Test Compound Administration Group)/(Average Value of Intraocular Pressure of Control Group) (Test Results)
As an example of the test results, the intraocular pressure reduction rates of the respective test compound administration groups at 9 hours after administering the respective test compounds (Compound 1-59, Compound 1-80, and Compound 2-2) are shown in Table II (one group consisting of 6 cases).
As for `Nc1ccccc1NC(=O)c1ccc(CN(CCCN2CCOCC2)C(=O)NCCc2ccc3c(c2)OCO3)cc1` [Compound 1-59, N-(2-Aminophenyl)-4-[3-[2-(benzo[1,3]dioxol-5-yl)ethyl]-1-[3-(morpholin-4-yl)propyl]ureidomethyl]benz-amide], the “Intraocular Pressure Reduction Rate (%)” value came out at 19%.

As for `CN(C)CCN(Cc1ccc(C(=O)Nc2ccccc2N)cc1)C(=O)Nc1ccc2c(c1)OCCO2` [Compound 1-80, N-(2-Aminophenyl)-4-[3-(2,3-dihydrobenzo[1,4]dioxin-6-yl)-1-(2-dimethylamino-ethyl)ureidomethyl]benzamide], the “Intraocular Pressure Reduction Rate (%)” value was determined as 18%.

Take `CN(C)CCCN(Cc1ccc(C(=O)Nc2ccccc2N)cc1)C(=O)Nc1ccc(F)c(F)c1` [Compound 2-2, N-(2-Aminophenyl)-4-[3-(3,4-difluorophenyl)-1-(3-dimethylaminopropyl)ureidomethyl]benzamide]: the “Intraocular Pressure Reduction Rate (%)” value was 13%.
